Patent US20250250537A1, “IN VITRO INSECT FAT CULTIVATION FOR CELLULAR AGRICULTURE APPLICATIONS” (Trustees of Tufts College, priority 2022, published 2025)

How the values were obtained:
[1] = system: S2 cells; conditions: 1 mM over 24 hours; cited from earlier work
[2] = system: Ms PCs; test: Lipid accumulation screen in Ms PCs (BODIPY and Oil Red O staining, Oil Red O dye elution); assay type: cell-based, M. sexta; conditions: 1 mM, 7 days in culture
Description: To screen for lipid accumulation in Ms PCs, cells were seeded at 100,000 cells/cm^2 in 48-well plates. After 24 hours in culture, media was refreshed with growth media supplemented with variable concentrations (0, 0.01, 0.1, 1 mM) of water-soluble oleic acid (01257, Sigma-Aldrich) or Intralipid (I141, Sigma-Aldrich). After seven days in culture, cells were stained with BODIPY ([…], Fisher Scientific) at a 1:2,000 dilution and NucBlue (R37605, Fisher Scientific) or fixed and stained with Oil Red O (O0625, Sigma-Aldrich). Cells were imaged on a fluorescence microscope (BZ-X800, Keyence). To quantify lipid accumulation, Oil Red O dye from each condition was eluted with isopropanol and absorbance (500 nm) was measured on a microplate reader. To investigate lipid accumulation over time, cells were treated with 0.1 mM of Intralipid and stained with BODIPY and NucBlue on days 1, 4, 7 and 14.

SMILES: CCCCCCCC/C=C\CCCCCCCC(=O)O [oleic acid]
- increase in triacylglycerol content [1]: 5 fold
- lipid droplet formation (BODIPY and Oil Red O staining) [2]: visible
- morphology, growth and viability of treated cells [2]: unhealthy morphology, minimal growth, and were assumed to be nonviable
